Patent publication US20240034730A1, “PYRAZOLO DERIVATIVES AS HUMAN DIHYDROOROTATE DEHYDROGENASE (HDHODH) INHIBITORS FOR USE AS ANTIVIRALS” (DRUG DISCOVERY AND CLINIC S.R.L., priority 2020, published 2024)
Values after ≈ are worked out from the molar mass of the structure shown. Read-outs that look alike come from different tables or passages of the source.

Experiments:
recombinant hDHODH = recombinant hDHODH (Homo sapiens (Human), UniProt Q02127); experiment: hDHODH inhibition assay (DCIP reduction); format: biochemical
recombinant hDHODH, sequence (Q02127 whole entry): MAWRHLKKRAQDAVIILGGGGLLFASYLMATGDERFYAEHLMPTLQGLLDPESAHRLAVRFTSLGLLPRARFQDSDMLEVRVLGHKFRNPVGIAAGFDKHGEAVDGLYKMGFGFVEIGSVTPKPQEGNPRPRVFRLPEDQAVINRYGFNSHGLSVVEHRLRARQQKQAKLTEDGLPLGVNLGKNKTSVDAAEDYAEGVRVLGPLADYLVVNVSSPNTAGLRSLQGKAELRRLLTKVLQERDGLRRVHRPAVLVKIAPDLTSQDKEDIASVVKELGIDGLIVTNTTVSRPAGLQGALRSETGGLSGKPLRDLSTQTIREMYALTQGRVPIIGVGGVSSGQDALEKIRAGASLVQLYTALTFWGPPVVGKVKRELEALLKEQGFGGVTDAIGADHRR

[1] = Solubility assay at pH 7.4 in PBS; format: physicochemical; conditions: for Solubility in PBS: pH 7.4; for solubility at 24 h: 25 °C, pH 7.4, aqueous buffer, thermodynamic from solid
Procedure: Solubility assay at pH 7.4. […] The samples were shaken in an orbital shaker at 25° C. for 24 h. These suspensions were filtered through a PTFE 0.45 μm filter (VWR), and the solutions were chromatographically analyzed using a Perkin Elmer Ultra High Performance Liquid Chromatography (UHPLC) instrument, equipped with a reverse-phase (RP) C18 Phenomenex column (2.1×100 mm, 1.7 μm particle size). Gradient elution: the ratio of eluents A and B (0.1% trifluoroacetic acid in water and 0.1% trifluoroacetic acid in acetonitrile, respectively) changed linearly from 60% A-40% B to 0% A-100% B in 12 minutes, followed by 5 minutes in isocratic elution at 100% of eluent B and then 4 minutes in equilibration elution to reset the starting conditions. The flow rate was 0.5 mL/min. Standard injection volumes were either 2 or 4 μl for poorly soluble compounds. The detection system was a Perkin Elmer diode-array-detector. The wavelengths that were monitored for each compound were defined according to the compound's own absorption spectrum. Solubility, expressed as μM concentration of the saturated solution, was calculated via interpolation with external calibration curves that were obtained with solutions of each compound in acetonitrile.

[2] = pH 7.4
Procedure: (§1) Lipophilicity. The shake flask method was chosen to determinate logD7.4.
(§2) The partition coefficients between n-octanol and PBS at pH 7.4 (log D^7.4) were obtained using the shake-flask technique at room temperature. In the shake-flask experiments, 50 mM of phosphate buffered saline pH 7.4 was used as the aqueous phase. The organic (n-octanol) and aqueous phases were mutually saturated by shaking for 4 h. The compounds were solubilized in the buffered aqueous phase at the highest concentration compatible with solubility and appropriate amounts of n-octanol were added. The two phases were shaken for about 20 min, by which time the partitioning equilibrium of solutes had been reached, and then centrifuged (10000 rpm, 10 min).

hCoV-OC43 = experiment: Focus forming reduction assay (FFRA), hCoV-OC43 in HCT-8 cells, single concentration; format: cell-based; conditions: HCT8 cells, 72 h p.i., vs DMSO control; for inhibition at 0.1 µM: Betacoronavirus 1, OC43, HCT-8, 72 h, read-out: % Decrease of hCoV-OC43 replication in presence of inhibitor 0.1 μM
[3] = log D (pH 7.4), shake-flask n-octanol/PBS; conditions: n-octanol/PBS pH 7.4, shake flask
Procedure: as §1, §2

[4] = recombinant GST-hDHODH, means ± SE of three independent experiments, read-out: hDHODH IC50 ± SE
[5] = recombinant GST-hDHODH, means ± SE of three independent experiments

`Cc1cccc2c(C(=O)Nc3c(F)c(F)c(-c4ccccc4)c(F)c3F)c(O)nn12` [Compound 2] showed an IC50 (recombinant hDHODH; [4]) of 4.3 nM.

With `O=C(Nc1c(F)c(F)c(-c2ccccc2)c(F)c1F)c1c(O)nn2c(Cl)cccc12` [Compound 4, 7-Chloro-2-hydroxy-N-(2,3,5,6-tetrafluoro-[1,1′-biphenyl]-4-yl)pyrazolo[1,5-a]pyridine-3-carboxamide] the IC50 (recombinant hDHODH; [4]) was 3.4 nM, the “Solubility in PBS” value [1] was “<LOD” and the “Log D7.4 ± SD” value [2] was 2.81 ± 0.13.

For `O=C(Nc1c(F)c(F)c(N2CCOCC2)c(F)c1F)c1c(O)nn2ccccc12` [Compound 6, 2-Hydroxy-N-(2,3,5,6-tetrafluoro-4-morpholinophenyl)pyrazolo[1,5-a]pyridine-3-carboxamide], the IC50 (recombinant hDHODH; [4]) was 90.9 nM, the solubility at 24 h [1] was 438 µM (≈ 180 µg/mL) and the “Log D7.4 ± SD” value [2] was 0.66 ± 0.08.

For `O=C(Nc1c(F)c(F)c(-c2cccs2)c(F)c1F)c1c(O)nn2ccccc12` [Compound 7, 2-Hydroxy-N-(2,3,5,6-tetrafluoro-4-(thiophen-2-yl)phenyl)pyrazolo[1,5-a]pyridine-3-carboxamide], the IC50 (recombinant hDHODH; [4]) was 1.35 ± 0.45 nM.

For `O=C(Nc1c(F)c(F)c(-c2cccnc2)c(F)c1F)c1c(O)nn2ccccc12` [Compound 8, 2-Hydroxy-N-(2,3,5,6-tetrafluoro-4-(pyridin-3-yl)phenyl)pyrazolo[1,5-a]pyridine-3-carboxamide], the IC50 (recombinant hDHODH; [4]) was 6.23 nM and the “Log D7.4 ± SD” value [2] was 0.98 ± 0.03.

With `O=C(Nc1c(F)c(F)c(-c2ccnc(C(F)(F)F)c2)c(F)c1F)c1c(O)nn2ccccc12` [Compound 9, 2-Hydroxy-N-(2,3,5,6-tetrafluoro-4-(2-(trifluoromethyl)pyridin-4-yl)phenyl)pyrazolo[1,5-a]pyridine-3-carboxamide] the IC50 (recombinant hDHODH; [4]) was 150 ± 15 nM, the inhibition at 0.1 µM (hCoV-OC43) was > 50% and the “Log D7.4 ± SD” value [2] was 1.84 ± 0.06.

With `O=C(Nc1c(F)c(F)c(-c2ccc(F)cc2)c(F)c1F)c1c(O)nn2ccccc12` [Compound 10, 2-Hydroxy-N-(2,3,4′,5,6-pentafluoro-[1,1′-biphenyl]-4-yl)pyrazolo[1,5-a]pyridine-3-carboxamide] the IC50 (recombinant hDHODH; [4]) was 17.7 nM, the “Solubility in PBS” value [1] was “<LOD” and the “Log D7.4 ± SD” value [2] was “Insoluble”.

With `O=C(Nc1c(F)c(F)c(-c2cccc(F)c2)c(F)c1F)c1c(O)nn2ccccc12` [Compound 11, 2-Hydroxy-N-(2,3,3′,5,6-pentafluoro-[1,1′-biphenyl]-4-yl)pyrazolo[1,5-a]pyridine-3-carboxamide] the IC50 (recombinant hDHODH; [4]) was 2.03 nM, the “Solubility in PBS” value [1] was “<LOD” and the “Log D7.4 ± SD” value [2] was 2.09 ± 0.04.

With `O=C(Nc1c(F)c(F)c(-c2ccc(C(F)(F)F)cc2)c(F)c1F)c1c(O)nn2ccccc12` [Compound 12, 2-Hydroxy-N-(2,3,5,6-tetrafluoro-4′-(trifluoromethyl)-[1,1′-biphenyl]-4-yl)pyrazolo[1,5-a]pyridine-3-carboxamide] the IC50 (recombinant hDHODH; [4]) was 71.8 nM, the “Solubility in PBS” value [1] was “<LOD” and the “Log D7.4 ± SD” value [2] was “Insoluble”.

For `O=C(Nc1c(F)c(F)c(-c2cccc(C(F)(F)F)c2)c(F)c1F)c1c(O)nn2ccccc12` [Compound 13, 2-Hydroxy-N-(2,3,5,6-tetrafluoro-3′-(trifluoromethyl)-[1,1′-biphenyl]-4-yl)pyrazolo[1,5-a]pyridine-3-carboxamide], the IC50 (recombinant hDHODH; [4]) was 6.34 ± 0.63 nM, the “Solubility in PBS” value [1] was “<LOD” and the “Log D7.4 ± SD” value [2] was 2.69 ± 0.03.

For `O=C(Nc1c(F)c(F)c(-c2cccc(O)c2)c(F)c1F)c1c(O)nn2ccccc12` [Compound 14, 2-Hydroxy-N-(2,3,5,6-tetrafluoro-3′-hydroxy-[1,1′-biphenyl]-4-yl)pyrazolo[1,5-a]pyridine-3-carboxamide], the IC50 (recombinant hDHODH; [4]) was 2.78 ± 0.32 nM, the solubility at 24 h [1] was 55 µM (≈ 23 µg/mL) and the “Log D7.4 ± SD” value [2] was 1.82 ± 0.09.

With `O=C(Nc1c(F)c(F)c(-c2cccc(OC(F)(F)F)c2)c(F)c1F)c1c(O)nn2ccccc12` [Compound 15, 2-Hydroxy-N-(2,3,5,6-tetrafluoro-3′-(trifluoromethoxy)-[1,1′-biphenyl]-4-yl)pyrazolo[1,5-a]pyridine-3-carboxamide] the IC50 (recombinant hDHODH; [4]) was 2.3 ± 0.33 nM, the inhibition at 0.1 µM (hCoV-OC43) was 93.6% and the “Log D7.4 ± SD” value [2] was 3.27 ± 0.19.

Work on `COc1cccc(-c2c(F)c(F)c(NC(=O)c3c(O)nn4ccccc34)c(F)c2F)c1` [Compound 16, 2-Hydroxy-N-(2,3,5,6-tetrafluoro-3′-methoxy-[1,1′-biphenyl]-4-yl)pyrazolo[1,5-a]pyridine-3-carboxamide] yielded an IC50 (recombinant hDHODH; [4]) of 2.75 ± 0.31 nM.

With `Cc1cc(Oc2ccccc2)c(C)cc1NC(=O)c1c(O)nn2ccccc12` [Compound 18] the IC50 (recombinant hDHODH; [4]) was 43 ± 5 nM.

For `O=C(Nc1ccc2[nH]ccc2c1)c1c(O)nn2ccccc12` [Compound 19, 2-Hydroxy-N-(1H-indol-5-yl)pyrazolo[1,5-a]pyridine-3-carboxamide], the IC50 (recombinant hDHODH; [4]) was > 10000 nM and the “Log D7.4 ± SD” value [3] was 0.45 ± 0.02.

`O=C(Nc1ccc(Oc2ccccc2)cn1)c1c(O)nn2ccccc12` [Compound 23, 2-Hydroxy-N-(5-phenoxypiridin-2-yl)pyrazolo[1,5-a]pyridine-3-carboxamide] showed an IC50 (recombinant hDHODH; [4]) of 12000 ± 1000 nM.

With `O=C(Nc1ccc(Oc2cccc(C(F)(F)F)c2)cn1)c1c(O)nn2ccccc12` [Compound 24, 2-Hydroxy-N-5-[3-(trifluoromethyl)phenoxy]piridin-2-ylpyrazolo[1,5-a]pyridine-3-carboxamide] the IC50 (recombinant hDHODH; [4]) was > 10000 nM.

In the case of `Oc1nn2ccccc2c1/N=N/c1c(F)c(F)c(-c2ccccc2)c(F)c1F` [Compound 25], the IC50 (recombinant hDHODH; [4]) is reported as 13 nM and the “% Decrease of hCoV-OC43 replication in presence of inhibitor 0.1 μM” value (hCoV-OC43) is reported as 18.70%.

In the case of `Cc1cc(Sc2ccncc2)c(C)cc1NC(=O)c1c(O)nn2ccccc12` [Compound 26, 2-Hydroxy-N-(2,5-dimethyl-4-(pyridin-4-ylthio)phenyl) pyrazolo[1,5-a]pyridine-3-carboxamide], the IC50 (recombinant hDHODH; [4]) is reported as 2210 ± 366 nM and the “Log D7.4 ± SD” value [3] is reported as 1.76 ± 0.07.

With `Cc1cc(NC(=O)c2c(O)nn3ccccc23)ccc1Oc1ccccc1` [Compound 27] the IC50 (recombinant hDHODH; [4]) was 480 ± 31 nM.

With `Cc1cc(NC(=O)c2c(O)nn3ccccc23)c(C(C)C)cc1Oc1ccccc1` [Compound 29, 2-Hydroxy-N-(2-isopropyl-5-methyl-4-phenoxyphenyl)pyrazolo[1,5-a]pyridine-3-carboxamide] the solubility at 24 h [1] was 1.2 ± 0.28 µM (≈ 0.482 µg/mL) and the “Log D7.4 ± SD” value [3] was 3.18 ± 0.09.

With `Cc1cc(Oc2ccccc2)c(C(C)C)cc1NC(=O)c1c(O)nn2ccccc12` [Compound 30, 2-Hydroxy-N-(5-isopropyl-2-methyl-4-phenoxyphenyl)pyrazolo[1,5-a]pyridine-3-carboxamide] the solubility at 24 h [1] was 0.98 ± 0.23 µM (≈ 0.393 µg/mL) and the “Log D7.4 ± SD” value [3] was 2.91 ± 0.07.

Compound `Cc1cc(NC(=O)c2c(O)nn3ccccc23)c(OC(C)C)cc1Oc1ccccc1` [Compound 31, 2-Hydroxy-N-(2-isopropoxy-5-methyl-4-phenoxyphenyl)pyrazolo[1,5-a]pyridine-3-carboxamide] has an IC50 (recombinant hDHODH; [4]) of 5200 ± 924 nM.

In the case of `Cc1cc(NC(=O)c2c(O)nn3ccccc23)c(OC2CCC2)cc1Oc1ccccc1` [Compound 32, N-(2-cyclobutoxy-5-methyl-4-phenoxyphenyl)-2-hydroxypyrazolo[1,5-a]pyridine-3-carboxamide], the IC50 (recombinant hDHODH; [4]) is reported as > 10000 nM.

Compound `CCC(C)Oc1cc(Oc2ccccc2)c(C)cc1NC(=O)c1c(O)nn2ccccc12` (stereo not drawn) [Compound 33, N-(2-(Sec-butoxy)-5-methyl-4-phenoxyphenyl)-2-hydroxypyrazolo[1,5-a]pyridine-3-carboxamide] has an IC50 (recombinant hDHODH; [4]) of 3940 ± 797 nM.

In the case of `CCCC(C)Oc1cc(Oc2ccccc2)c(C)cc1NC(=O)c1c(O)nn2ccccc12` (stereo not drawn) [Compound 34, 2-Hydroxy-N-(5-methyl-2-(pentan-2-yloxy)-4-phenoxyphenyl) pyrazolo[1,5-a]pyridine-3-carboxamide], the IC50 (recombinant hDHODH; [4]) is reported as 2210 ± 346 nM.

`CCC(CC)Oc1cc(Oc2ccccc2)c(C)cc1NC(=O)c1c(O)nn2ccccc12` [Compound 35, 2-Hydroxy-N-(5-methyl-2-(pentan-3-yloxy)-4-phenoxyphenyl)pyrazolo[1,5-a]pyridine-3-carboxamide] gave an IC50 (recombinant hDHODH) of 6980 ± 1010 nM.

In the case of `Cc1cc(NC(=O)c2c(O)nn3ccccc23)c(C(C)C)cc1Oc1ccncc1` [Compound 36, 2-Hydroxy-N-(2-isopropyl-5-methyl-4-(pyridin-4-yloxy)phenyl)pyrazolo[1,5-a]pyridine-3-carboxamide], the solubility at 24 h [1] is reported as 111.1 ± 0.35 µM (≈ 44.7 µg/mL) and the “Log D7.4 ± SD” value [3] is reported as 2.51 ± 0.07.

Work on `Cc1cc(NC(=O)c2c(O)nn3ccccc23)c(C(C)C)cc1Oc1ccc(C(F)(F)F)cc1` [Compound 37, 2-Hydroxy-N-(2-isopropyl-5-methyl-4-(4-(trifluoromethyl)phenoxy)phenyl)pyrazolo[1,5-a]pyridine-3-carboxamide] yielded a solubility at 24 h [1] of 1.23 ± 0.09 µM (≈ 0.577 µg/mL) and an inhibition at 0.1 µM (hCoV-OC43) of 36.1%.

For `Oc1nn2ccccc2c1/N=N/c1ccc(Oc2ccccc2)cc1` [Compound 38, (E)-3-((4-phenoxyphenyl)diazinyl)pyrazolo[1,5-a]pyridin-2-ol], the “hDHODH IC50 ± SE” value (recombinant hDHODH; [5]) was “Inactive at 1 microM”.

For `Oc1nn2ccccc2c1-c1nnc(-c2c(F)c(F)c(-c3ccccc3)c(F)c2F)o1` [Compound 39, 3-(5-(2,3,5,6-Tetrafluoro-[1,1′-biphenyl]-4-yl)-1,3,4-oxadiazol-2-yl) pyrazolo [1,5-a]pyridine-2-ol], the “hDHODH IC50 ± SE” value (recombinant hDHODH; [5]) was “Inactive at 1 microM”.

Compound `CC(=O)COc1cccc(-c2c(F)c(F)c(NC(=O)c3c(O)nn4ccccc34)c(F)c2F)c1` [Compound 41, 2-Hydroxy-N-(2,3,5,6-tetrafluoro-3′-(2-oxopropoxy)-[1,1′-biphenyl]-4-yl) pyrazolo [1,5-a]pyridine-3-carboxamide] has an IC50 (recombinant hDHODH; [4]) of 0.82 ± 0.1 nM.

In the case of `O=C(Nc1c(F)c(F)c(-c2cccc(OCCCO)c2)c(F)c1F)c1c(O)nn2ccccc12` [Compound 42, 2-Hydroxy-N-(2,3,5,6-tetrafluoro-3′-(3-hydroxypropoxy)-[1,1′-biphenyl]-4-yl) pyrazolo[1,5-a]pyridine-3-carboxamide], the IC50 (recombinant hDHODH; [4]) is reported as 3.29 ± 0.33 nM.

For `CC(O)COc1cccc(-c2c(F)c(F)c(NC(=O)c3c(O)nn4ccccc34)c(F)c2F)c1` (stereo not drawn) [Compound 43, 2-Hydroxy-N-(2,3,5,6-tetrafluoro-3′-(2-hydroxypropoxy)-[1,1′-biphenyl]-4-yl) pyrazolo[1,5-a]pyridine-3-carboxamide], the IC50 (recombinant hDHODH; [4]) was 2.5 ± 0.2 nM.
